The source made the active and inactive calls.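 How the source made its calls: active means inhibition of 30% or more at 50 µM, though no compound was called active; inactive means inhibition below 30% at 50 µM.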

Serine/threonine-protein phosphatase 2A catalytic subunit alpha isoform (Bos taurus), sequence (P67774 whole entry, looked up, canonical isoform): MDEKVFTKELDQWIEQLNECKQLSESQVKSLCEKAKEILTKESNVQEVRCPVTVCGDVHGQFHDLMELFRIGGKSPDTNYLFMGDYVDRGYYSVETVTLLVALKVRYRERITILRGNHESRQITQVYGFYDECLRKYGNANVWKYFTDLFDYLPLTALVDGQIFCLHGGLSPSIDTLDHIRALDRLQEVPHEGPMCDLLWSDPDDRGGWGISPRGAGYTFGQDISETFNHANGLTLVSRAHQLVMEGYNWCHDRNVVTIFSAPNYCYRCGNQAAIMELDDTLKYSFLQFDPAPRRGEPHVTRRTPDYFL

This experiment has as its target Serine/threonine-protein phosphatase 2A catalytic subunit alpha isoform (Bos taurus) (UniProt P67774). The experiment can be described thus: inhibitors of bovine PP2A histone dephosphorylation – biochemical, bovine brain PP2A, 33P-phosphohistone, single concentration, round 5, selectivity assay for PP5 inhibitor project, late-stage follow-up (AID 624443). Particulars: purified bovine PP2A, 33P-phosphohistone dephosphorylation, scintillation; at 50 µM; hits give high values.
Turning to `COc1cccc(-c2n[nH]nc2C(=O)O)c1`, the inhibition is 3.7% (inactive).

For `O=C(O)c1n[nH]nc1-c1cccc(F)c1`, the inhibition is 1.89% (inactive).

Turning to `COc1ccccc1-c1n[nH]nc1C(=O)O`, the inhibition is 24.7% (inactive).

`O=C(O)c1n[nH]nc1-c1ccccc1O`: the inhibition is 0.275% (inactive).

Consider `O=C(O)c1n[nH]nc1-c1ccc(F)cc1`, for which the inhibition was -0.575% (inactive).

With `O=C(O)c1n[nH]nc1-c1ccccc1F`, the inhibition is 3.76% (inactive).

On to `COc1ccc(-c2n[nH]nc2C(=O)O)cc1`, for which the inhibition is -5.38% (inactive).
